Laboratory results reported in article PMC9870890 (Nature Communications, 2023).
Substitutions are numbered along the chain they refer to. Several values for one entry are separate records, joined by “and”; a condition that tells them apart may be missing. Equal entries are not always repeated.

What was measured:
M2RFL_WT = biological target: T1, M2RFL_WT (Homo sapiens, UniProt P08172); experiment: [3H]-NMS competition binding (ACh competition, GoA titration), wild type full length M2R; set-up: unit not given here
T1 construct: made in house; host or cells: Sf9 membranes
T1 sequence (P08172 1-466): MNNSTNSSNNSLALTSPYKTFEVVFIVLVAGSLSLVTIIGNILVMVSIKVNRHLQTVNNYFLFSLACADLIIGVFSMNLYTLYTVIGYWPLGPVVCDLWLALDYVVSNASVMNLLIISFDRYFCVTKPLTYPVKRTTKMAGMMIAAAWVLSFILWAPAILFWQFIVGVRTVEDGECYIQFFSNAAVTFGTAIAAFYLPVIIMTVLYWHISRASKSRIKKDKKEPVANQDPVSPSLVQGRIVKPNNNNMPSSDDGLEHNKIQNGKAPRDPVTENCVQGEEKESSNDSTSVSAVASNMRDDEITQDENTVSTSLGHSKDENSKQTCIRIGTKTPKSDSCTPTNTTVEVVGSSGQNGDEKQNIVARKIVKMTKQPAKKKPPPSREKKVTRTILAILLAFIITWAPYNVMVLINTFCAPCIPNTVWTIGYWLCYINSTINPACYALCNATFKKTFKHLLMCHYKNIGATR
Experimental: (§1) Purified M2R receptor was reconstituted into high-density lipoprotein (HDL) particles constituting apolipoprotein A1(APOA1) and mixture of POPG: POPC lipids with 3:2 (mol:mol)ratio as previously described. […] Membranes or HDL particles were separated from excess [^3H]-NMS by Whatman GF/B filters using a Brandel 48-well harvester. The bound radioligand were read on a liquid scintillation counter (MicroBeta Jet, PerkinElmer). Data were analyzed by GraphPad Prism 9.2.0. […]
(§2) Data are given as mean
(§3) ± SEM from 3 independent experiments.
(§4) M2RFL△9M_K383M and M2RFL_WT.
(§5) SEM from 3 independent experiments. […]

M2RFL△9M_K383M = biological target: T2, M2RFL△9M_K383M (Homo sapiens, UniProt P08172, K383M/M139L/M142L/M143L/M1T/M248L/M296L/M368L/M456T/M45L); experiment: [3H]-NMS competition binding (ACh competition, GoA titration), engineered construct; set-up: unit not given here
T2 construct: we used the full-length M2R (M2RFL) with mutations at the three native methionines in ICL3; FLAG; His; made in house; host or cells: Sf9 membranes
T2 sequence (P08172 1-466 M1T/M45L/M139L/M142L/M143L/M248L/M296L/M368L/K383M/M456T): T1 sequence (P08172 1-466) with M1T, M45L, M139L, M142L, M143L, M248L, M296L, M368L, K383M, M456T
Experimental: as §1, §2, §3, §4, §5

With `CC(=O)OCC[N+](C)(C)C` [ACh, acetylcholine] as the molecule, how does the “ACh competition curve data, Supplementary Fig. 4c” value (shortened to “ACh competition curve data”) (M2RFL_WT; log[M] (ACh) -3) read?
Its value is 7.417 and 5.223 and 6.047.

What about the “ACh competition curve data” value (M2RFL_WT; log[M] (ACh) -4) of the same molecule?
The value was 27.7888 and 31.3709 and 30.2311.

And the “ACh competition curve data” value (M2RFL_WT; log[M] (ACh) -5)?
The value was 61.0434 and 71.3013 and 69.7784.

And the “ACh competition curve data” value (M2RFL_WT; log[M] (ACh) -6)?
Its value is 79.8736 and 96.1082 and 98.1674.

And the “ACh competition curve data” value (M2RFL_WT; log[M] (ACh) -7)?
Its value is 94.365 and 99.8819 and 105.753.

What about the “ACh competition curve data” value (M2RFL_WT; log[M] (ACh) -8) of the same molecule?
The value was 97.3725 and 89.5377 and 100.935.

What about the “ACh competition curve data” value (M2RFL△9M_K383M; log[M] (ACh) -3) of the same molecule?
The value was 3.636 and 3.347 and 4.163.

And the “ACh competition curve data” value (M2RFL△9M_K383M; log[M] (ACh) -4)?
Its value is 19.7375 and 21.0617 and 22.4385.

And the “ACh competition curve data” value (M2RFL△9M_K383M; log[M] (ACh) -5)?
Its value is 66.4796 and 63.8048 and 73.8724.

What about the “ACh competition curve data” value (M2RFL△9M_K383M; log[M] (ACh) -6) of the same molecule?
The value was 76.3279 and 99.6814 and 101.207.

And the “ACh competition curve data” value (M2RFL△9M_K383M; log[M] (ACh) -7)?
The value was 102.154 and 99.3043 and 98.5413.

And the “ACh competition curve data” value (M2RFL△9M_K383M; log[M] (ACh) -8)?
Its value is 82.4578 and 100.655 and 103.084.
